Measurements published in patent US11149054B2, “Oxysterols and methods of use thereof” (Sage Therapeutics, Inc., priority 2016, dated 2021).
Like-named read-outs stand apart in the source and are kept apart here.

Tests used:
[1] = target: GluN2B glutamate receptors (Homo sapiens (Human), UniProt Q05586+Q13224); assay: Whole-cell patch clamp of mammalian cells (Ionworks Barracuda), positive allosteric modulation, GluN2B; type: cell-based; conditions: for Emax: read-out: Avg Emax 2B (%)
How it was run: (§1)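 Perforated-patch whole-cell recording, holding −70 mV, −40 mV during application; Cs-based internal pH 7.2, external with 5 mM CaCl2 pH 7.4. Test article pre-applied alone 5 min, then co-applied with EC20 L-glutamate plus 30 μM glycine. EC50 from Hill fit of % activation over the EC20 current.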

[2] = target: GlunN1/GluN2A glutamate receptors (Homo sapiens (Human), UniProt Q05586+Q12879); assay: Whole-cell patch clamp of mammalian cells (Ionworks Barracuda), positive allosteric modulation, GluN1/GluN2A; type: cell-based
How it was run: as §1

[3] = HEK293, read-out: Avg Emax 2A (%)
[4] = % potentiation of current elicited with EC20 L-glutamate and 30 μM glycine
[5] = HEK293 cells, % potentiation of current elicited with EC20 L-glutamate and 30 μM glycine, read-out: Avg Emax 2A (%)
[6] = co-application with EC20 L-glutamate and 30 μM glycine, 8-point concentration-response, read-out: Avg EC50 2B
[7] = HEK293 cells, co-application with EC20 L-glutamate and 30 μM glycine, 8-point concentration-response, read-out: Avg EC50 2A

Chain of GluN2B glutamate receptors (Q13224 27-1484, other chains not shown): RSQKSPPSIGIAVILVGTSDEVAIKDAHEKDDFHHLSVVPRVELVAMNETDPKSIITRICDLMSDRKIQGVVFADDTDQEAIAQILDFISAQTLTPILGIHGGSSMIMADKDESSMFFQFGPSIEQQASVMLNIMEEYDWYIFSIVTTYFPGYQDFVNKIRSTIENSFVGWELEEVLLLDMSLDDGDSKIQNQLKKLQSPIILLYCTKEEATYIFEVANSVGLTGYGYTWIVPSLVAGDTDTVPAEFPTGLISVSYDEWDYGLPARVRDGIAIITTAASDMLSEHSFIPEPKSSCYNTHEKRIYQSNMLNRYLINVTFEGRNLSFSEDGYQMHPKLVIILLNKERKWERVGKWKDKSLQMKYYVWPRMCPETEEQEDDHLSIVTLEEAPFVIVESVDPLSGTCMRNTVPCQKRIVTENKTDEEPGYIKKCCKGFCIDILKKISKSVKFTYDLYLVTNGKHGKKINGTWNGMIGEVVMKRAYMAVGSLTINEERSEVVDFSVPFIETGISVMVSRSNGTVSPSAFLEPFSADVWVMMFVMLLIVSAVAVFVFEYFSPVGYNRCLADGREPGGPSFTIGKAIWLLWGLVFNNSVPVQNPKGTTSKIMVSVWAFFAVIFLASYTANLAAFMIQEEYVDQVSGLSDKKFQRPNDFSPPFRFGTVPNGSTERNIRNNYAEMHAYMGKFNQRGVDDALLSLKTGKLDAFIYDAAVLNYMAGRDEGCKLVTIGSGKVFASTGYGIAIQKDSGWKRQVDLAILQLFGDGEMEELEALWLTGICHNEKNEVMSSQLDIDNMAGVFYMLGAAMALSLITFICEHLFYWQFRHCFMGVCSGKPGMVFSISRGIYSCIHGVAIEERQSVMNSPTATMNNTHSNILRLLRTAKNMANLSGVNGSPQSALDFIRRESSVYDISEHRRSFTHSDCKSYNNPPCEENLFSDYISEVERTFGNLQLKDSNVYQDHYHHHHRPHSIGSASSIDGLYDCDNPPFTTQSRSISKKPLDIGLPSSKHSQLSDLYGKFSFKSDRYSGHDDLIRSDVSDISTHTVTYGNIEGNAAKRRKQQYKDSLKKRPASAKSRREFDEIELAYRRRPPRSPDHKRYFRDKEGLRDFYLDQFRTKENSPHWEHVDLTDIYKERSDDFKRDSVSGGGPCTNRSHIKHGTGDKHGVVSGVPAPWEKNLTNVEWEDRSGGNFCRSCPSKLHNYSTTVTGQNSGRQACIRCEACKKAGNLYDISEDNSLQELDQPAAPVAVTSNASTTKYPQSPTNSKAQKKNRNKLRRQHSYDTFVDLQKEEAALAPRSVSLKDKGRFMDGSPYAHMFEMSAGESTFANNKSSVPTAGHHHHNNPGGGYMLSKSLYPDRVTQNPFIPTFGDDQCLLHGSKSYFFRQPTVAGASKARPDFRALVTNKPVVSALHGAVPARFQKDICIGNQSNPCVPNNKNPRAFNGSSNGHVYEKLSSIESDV
Chain of GlunN1/GluN2A glutamate receptors (Q12879 23-1464, other chains not shown): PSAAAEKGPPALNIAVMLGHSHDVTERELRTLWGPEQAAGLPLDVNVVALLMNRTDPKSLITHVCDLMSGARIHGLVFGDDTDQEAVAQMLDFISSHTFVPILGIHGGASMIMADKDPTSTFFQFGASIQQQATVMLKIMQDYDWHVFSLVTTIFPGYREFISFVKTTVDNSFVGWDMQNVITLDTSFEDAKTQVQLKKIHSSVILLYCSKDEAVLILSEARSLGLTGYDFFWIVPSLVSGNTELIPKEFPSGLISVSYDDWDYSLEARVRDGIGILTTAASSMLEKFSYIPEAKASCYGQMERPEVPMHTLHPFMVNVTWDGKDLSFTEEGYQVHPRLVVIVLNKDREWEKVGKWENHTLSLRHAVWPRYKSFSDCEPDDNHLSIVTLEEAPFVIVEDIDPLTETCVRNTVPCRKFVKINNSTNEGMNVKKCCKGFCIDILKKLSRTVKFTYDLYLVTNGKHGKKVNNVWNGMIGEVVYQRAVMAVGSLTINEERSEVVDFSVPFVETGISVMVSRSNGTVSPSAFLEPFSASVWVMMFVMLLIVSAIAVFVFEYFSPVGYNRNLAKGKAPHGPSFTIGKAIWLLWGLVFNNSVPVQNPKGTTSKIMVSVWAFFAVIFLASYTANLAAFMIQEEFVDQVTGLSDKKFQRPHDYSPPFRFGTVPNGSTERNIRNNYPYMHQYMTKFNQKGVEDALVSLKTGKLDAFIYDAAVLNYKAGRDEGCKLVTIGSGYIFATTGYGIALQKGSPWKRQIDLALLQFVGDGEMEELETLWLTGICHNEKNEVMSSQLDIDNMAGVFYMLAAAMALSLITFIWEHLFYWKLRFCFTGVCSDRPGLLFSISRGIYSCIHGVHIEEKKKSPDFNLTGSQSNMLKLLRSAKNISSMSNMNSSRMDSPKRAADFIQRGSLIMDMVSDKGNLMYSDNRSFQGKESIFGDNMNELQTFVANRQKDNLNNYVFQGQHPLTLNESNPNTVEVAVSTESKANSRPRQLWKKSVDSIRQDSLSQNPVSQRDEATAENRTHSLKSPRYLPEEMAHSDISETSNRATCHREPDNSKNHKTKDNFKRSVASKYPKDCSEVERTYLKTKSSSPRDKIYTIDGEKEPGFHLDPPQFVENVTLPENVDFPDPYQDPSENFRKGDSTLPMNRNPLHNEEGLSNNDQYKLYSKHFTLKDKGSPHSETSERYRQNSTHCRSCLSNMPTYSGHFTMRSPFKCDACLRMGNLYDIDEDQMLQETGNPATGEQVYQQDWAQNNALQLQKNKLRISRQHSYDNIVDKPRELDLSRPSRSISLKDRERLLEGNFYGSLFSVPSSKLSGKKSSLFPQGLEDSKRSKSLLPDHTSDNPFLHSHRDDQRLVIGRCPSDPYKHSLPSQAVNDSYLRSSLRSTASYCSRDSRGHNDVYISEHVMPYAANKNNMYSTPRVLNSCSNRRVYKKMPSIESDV

SMILES | Emax [1] [%] | Emax [2, 3] [%] | EC50 [1] [nM] | Emax [1, 4] [%] | EC50 [2] [nM] | Emax [2, 5] [%] | EC50 [1, 6] [nM] | EC50 [2, 7] [nM]
C[C@H](CCC1(O)CCC(OC(F)F)CC1)[C@H]1CC[C@H]2[C@@H]3CC[C@H]4C[C@](O)(C(F)(F)F)CC[C@]4(C)[C@H]3CC[C@]12C (some centres unmarked) [Compound 5131] | 39 | 52.9 |  |  |  |  |  | 
CC(C)[C@H](O)CC[C@@H](C)[C@H]1CC[C@H]2[C@@H]3CC[C@H]4C[C@](O)(C(F)(F)F)CC[C@]4(C)[C@H]3CC[C@]12C [Compound 2B] |  |  | 143 | 965 | 131 | 625 |  | 
CC[C@]1(O)CC[C@H]2C(=CC[C@@H]3[C@@H]2CC[C@]2(C)[C@@H]([C@H](C)CC[C@@H](O)C(C)(C)C)CC[C@@H]32)C1 [Compound 8379] | 359 | 252 | 78.1 |  | 73.4 |  |  | 
C[C@H](CCC1(O)CCC(F)(F)CC1)[C@H]1CC[C@H]2[C@@H]3CC[C@H]4C[C@](O)(C(F)(F)F)CC[C@]4(C)[C@H]3CC[C@]12C [Compound 8] |  |  | 372 |  | 446 |  |  | 
C[C@H](CCC1(O)CCCCCC1)[C@H]1CC[C@H]2[C@@H]3CC[C@H]4C[C@](O)(C(F)(F)F)CC[C@]4(C)[C@H]3CC[C@]12C [Compound 3983] |  |  | 248 |  | 88.1 |  |  | 
CC(C)[C@H](O)CCC[C@@H](C)[C@H]1CC[C@H]2[C@@H]3CC[C@H]4C[C@](O)(C(F)(F)F)CC[C@]4(C)[C@H]3CC[C@]12C [Compound 11828] | 114 | 142 | 76.9 |  | 147 |  |  | 
CC[C@]1(O)CC[C@H]2[C@@H](CC[C@@H]3[C@@H]2CC[C@]2(C)[C@@H]([C@H](C)CCCO)CC[C@@H]32)C1 [Compound 376] |  |  | > 10000 | 59.8 | > 10000 | 49.9 |  | 
C[C@H](CC[C@H](O)C(C)(C)C)[C@H]1CC[C@H]2[C@@H]3CC=C4C[C@](O)(C(F)(F)F)CC[C@]4(C)[C@H]3CC[C@]12C [Compound 3507] |  |  | 191 |  | 165 |  |  | 
CC[C@]1(O)CC[C@@]2(C)[C@@H](CC[C@@H]3[C@@H]2CC[C@]2(C)[C@@H]([C@H](C)CC[C@@H](O)c4cccnc4)CC[C@@H]32)C1 [Compound 6755] |  |  | > 10000 | 44.2 | > 10000 | 22.8 |  | 
CC(C)[C@@H](O)CC[C@@H](C)[C@H]1CC[C@H]2[C@@H]3CC[C@H]4C[C@@](C)(O)CC[C@@H]4[C@H]3CC[C@]12C [Compound 1A75] |  |  |  | 308 |  | 457 |  | 
CC[C@]1(O)CC[C@H]2C(=CC[C@@H]3[C@@H]2CC[C@]2(C)[C@@H]([C@H](C)CCC[C@H](O)C(F)(F)F)CC[C@@H]32)C1 [Compound 9567] |  |  |  | 124 |  | 104 | 378 | 328
CC[C@]1(O)CC[C@@]2(C)C(=CC[C@H]3[C@@H]4CC[C@H]([C@H](C)CC[C@H](O)c5cccc(C#N)c5)[C@@]4(C)CC[C@@H]32)C1 [Compound 6998] |  |  |  | 303 |  | 338 | 304 | 358
C[C@H](CC[C@@]1(O)CCOC1)[C@H]1CC[C@H]2[C@@H]3CC[C@H]4C[C@](O)(C(F)(F)F)CC[C@]4(C)[C@H]3CC[C@]12C [Compound 2706] |  |  | 124 | 139 | > 10000 | 96.8 |  | 
CC[C@]1(O)CC[C@@]2(C)C(=CC[C@H]3[C@@H]4CC[C@H]([C@H](C)CC[C@H](O)Cc5ccccc5)[C@@]4(C)CC[C@@H]32)C1 [Compound 6051] |  |  | 1260 | 292 | 500 | 293 |  | 
CC(C)C(O)CC[C@@H](C)[C@H]1CC[C@H]2[C@@H]3CC[C@H]4C[C@@](C)(O)CC[C@@H]4[C@H]3CC[C@]12C (some centres unmarked) [Compound 175] |  |  | 288 | 279 | 574 | 367 |  | 
CC[C@]1(O)CC[C@@]2(C)C(=CC[C@H]3[C@@H]4CC[C@H]([C@H](C)CC[C@@H](O)c5ccccn5)[C@@]4(C)CC[C@@H]32)C1 [Compound 6348] |  |  | 663 | 133 | 260 | 79.7 |  | 
CC[C@]1(O)CC[C@@]2(C)[C@@H](CC[C@@H]3[C@@H]2CC[C@]2(C)[C@@H]([C@H](C)CC[C@H](O)c4ccccn4)CC[C@@H]32)C1 [Compound 7032] |  |  | 874 | 63.8 |  | 28.3 |  | 
C[C@H](CC[C@@H](O)C(C)(C)C)[C@H]1CC[C@H]2[C@@H]3CC[C@@H]4C[C@](O)(C(F)(F)F)CC[C@]4(C)[C@H]3CC[C@]12C [Compound 3788] |  |  | 1120 |  | 1320 |  |  | 

SMILES | Emax [1] [%] | Emax [2, 3] [%] | EC50 [1] [nM] | Emax [1, 4] [%] | EC50 [2] [nM] | Emax [2, 5] [%] | EC50 [1, 6] [nM] | EC50 [2, 7] [nM]
CC[C@]1(O)CC[C@H]2C(=CC[C@@H]3[C@@H]2CC[C@]2(C)[C@@H]([C@H](C)CC[C@@]4(O)CCOC4)CC[C@@H]32)C1 (single isomer, unassigned) [Compound 8602] |  |  | 434 |  | 1050 |  |  | 
C[C@H](CC[C@@H](O)C(C)(C)C)[C@H]1CC[C@H]2[C@@H]3CC=C4C[C@](O)(C(F)(F)F)CC[C@]4(C)[C@H]3CC[C@]12C [Compound 3382] |  |  | 126 |  | 67.6 |  |  | 
CC[C@@H](O)CC[C@@H](C)[C@H]1CC[C@H]2[C@@H]3CC[C@H]4C[C@](O)(CC)CC[C@@H]4[C@H]3CC[C@]12C [Compound 9142] | 44.8 | 41.6 | 70.4 |  | > 10000 |  |  | 
CC[C@]1(O)CC[C@@]2(C)C(=CC[C@H]3[C@@H]4CC[C@H]([C@H](C)CC[C@@H](O)c5ccccc5F)[C@@]4(C)CC[C@@H]32)C1 [Compound 7282] |  |  | 174 |  | 95.9 |  |  | 
C[C@H](O)CC[C@@H](C)[C@H]1CC[C@H]2[C@@H]3CC=C4C[C@](O)(C(F)(F)F)CC[C@]4(C)[C@H]3CC[C@]12C [Compound 2602] |  |  | 279 | 367 | 289 | 163 |  | 
CC[C@]1(O)CC[C@@]2(C)[C@@H](CC[C@@H]3[C@@H]2CC[C@]2(C)[C@@H]([C@H](C)CC[C@@H](O)c4ccccc4)CC[C@@H]32)C1 [Compound 6571] |  |  | 267 | 241 | 190 | 158 |  | 
C[C@H](CC[C@@H](O)C1CCC1)[C@H]1CC[C@H]2[C@@H]3CC[C@H]4C[C@](O)(C(F)(F)F)CC[C@]4(C)[C@H]3CC[C@]12C [7−B] |  |  | 306 | 352 | 347 | 356 |  | 
C[C@H](CCC[C@H](O)C(F)(F)F)[C@H]1CC[C@H]2[C@@H]3CC[C@H]4C[C@](O)(C(F)(F)F)CC[C@]4(C)[C@H]3CC[C@]12C [Compound 11934] |  |  |  | 70 |  | 113 |  | 
C[C@H](CCC[C@@H](O)C(C)(C)C)[C@H]1CC[C@H]2[C@@H]3CC[C@H]4C[C@](O)(C(F)(F)F)CC[C@]4(C)[C@H]3CC[C@]12C [Compound 12055] |  |  |  | 185 |  | 114 |  | 
CC[C@]1(O)CC[C@@]2(C)[C@@H](CC[C@@H]3[C@@H]2CC[C@]2(C)[C@@H]([C@H](C)CC[C@H](O)c4ccccc4)CC[C@@H]32)C1 [Compound 6572] |  |  | 1340 | 251 | 378 | 129 |  | 
C[C@H](CC[C@](C)(O)C(F)(F)F)[C@H]1CC[C@H]2[C@@H]3CC[C@H]4C[C@](O)(C(F)(F)F)CC[C@]4(C)[C@H]3CC[C@]12C [Compound 4] |  |  | 212 | 463 | 201 | 663 |  | 
CC[C@]1(O)CC[C@@]2(C)C(=CC[C@H]3[C@@H]4CC[C@H]([C@H](C)CC[C@H](O)c5ccccn5)[C@@]4(C)CC[C@@H]32)C1 [Compound 6347] |  |  | 311 | 132 | 268 | 64.7 |  | 
CC[C@]1(O)CC[C@H]2C(=CC[C@@H]3[C@@H]2CC[C@]2(C)[C@@H]([C@H](C)CCC4(O)CC4)CC[C@@H]32)C1 [Compound 8245] |  |  | 268 | 120 | 525 | 73 |  | 
CC[C@]1(O)CC[C@@]2(C)C(=CC[C@H]3[C@@H]4CC[C@H]([C@H](C)CC[C@H](O)c5ccc(C#N)cc5)[C@@]4(C)CC[C@@H]32)C1 (single isomer, unassigned) [Compound 6681] |  |  | 360 | 165 | 365 | 172 |  | 
C[C@H](CC[C@](C)(O)C(F)(F)F)[C@H]1CC[C@H]2[C@@H]3CC=C4C[C@@](C)(O)CC[C@@H]4[C@H]3CC[C@]12C [Compound 9062] | 52.2 | 66.5 |  |  |  |  |  | 
CO[C@H]1CC[C@@](O)(CC[C@@H](C)[C@H]2CC[C@H]3[C@@H]4CC[C@H]5C[C@](O)(C(F)(F)F)CC[C@]5(C)[C@H]4CC[C@]23C)CC1 [Compound 4555] |  |  | > 10000 | 31.9 | > 10000 | 22.8 |  | 
C[C@H](CC[C@](C)(O)C(F)(F)F)[C@H]1CC[C@H]2[C@@H]3CC=C4C[C@](O)(C(F)(F)F)CC[C@]4(C)[C@H]3CC[C@]12C [Compound 3035] |  |  | 75.7 |  | 61 |  |  | 
